Reference: publication PMC10221159, “Investigation of N-Acetyltransferase 2-Mediated Drug Interactions of Amifampridine: In Vitro and In Vivo Evidence of Drug Interactions with Acetaminophen” (Pharmaceutics, 2023)
Values joined by “and” are separate entries in the source; they are usually repeats but may differ in a detail not shown here. Equal entries are not always repeated. Where two headings read alike, the source gives them in different places.

Columns and labels:
NAT2 [1] = target: T1, NAT2 (Homo sapiens, UniProt P11245); assay: Inhibition of amifampridine acetylation to 3-N-acetylamifampridine by NAT2 inhibitors, human liver S9 fraction; type: biochemical; conditions: amifampridine 50 μM, 15 min
T1 construct: in vitro using S9 fractions obtained from human, rat, and mouse livers; from tissue; host or cells: human liver S9 fraction
T1 sequence (P11245 1-290): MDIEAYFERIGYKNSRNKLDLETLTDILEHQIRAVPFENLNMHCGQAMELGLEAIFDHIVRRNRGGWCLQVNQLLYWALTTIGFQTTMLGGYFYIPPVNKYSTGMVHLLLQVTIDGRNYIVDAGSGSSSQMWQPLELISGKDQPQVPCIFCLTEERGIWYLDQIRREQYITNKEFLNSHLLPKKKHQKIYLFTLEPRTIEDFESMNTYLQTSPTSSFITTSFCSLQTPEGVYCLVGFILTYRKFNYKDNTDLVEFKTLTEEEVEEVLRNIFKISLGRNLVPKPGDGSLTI

[2] = parameters: method as in PMID 21074742; conditions: humans, oral or intravenous administration; cited from earlier work
NAT2 [3] = target: T2, NAT2 (Rattus norvegicus, UniProt P50298); assay: Inhibition of amifampridine acetylation to 3-N-acetylamifampridine by NAT2 inhibitors, rat liver S9 fraction; type: biochemical; conditions: rat vs human liver S9 fractions
T2 sequence (P50298 1-290): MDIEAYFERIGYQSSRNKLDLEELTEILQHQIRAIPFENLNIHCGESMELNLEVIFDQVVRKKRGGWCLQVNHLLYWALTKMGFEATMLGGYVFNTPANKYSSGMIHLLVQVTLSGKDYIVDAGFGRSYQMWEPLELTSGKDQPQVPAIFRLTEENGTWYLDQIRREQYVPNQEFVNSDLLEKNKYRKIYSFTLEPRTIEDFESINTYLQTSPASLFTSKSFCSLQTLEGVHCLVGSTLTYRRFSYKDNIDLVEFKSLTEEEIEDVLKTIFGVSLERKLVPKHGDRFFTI
Procedure: To determine the half maximal inhibitory concentration (IC50) value of NAT2 inhibitors (acetaminophen, apocynin, and cimetidine) on the metabolism of amifampridine to 3-N-acetylamifampridine, the reaction mixture consisted of a liver S9 fraction (2 mg/mL protein) and 2 mM acetyl-CoA in potassium phosphate buffer was pre-incubated for 5 min in a thermomixer at 37 °C. Then, the NAT2 inhibitors (final concentrations of 0, 1, 5, 10, 50, 100, 500, 1000, and 5000 μM) and amifampridine (final concentration of 50 μM) were added to the reaction mixture and incubated for 15 min at 37 °C. An amount of 50 μL of the mixture was then transferred into the tube and mixed with 100 μL of IS (5 ng/mL ondansetron in acetonitrile). The mixture was vortexed and centrifuged at 14,000 rpm for 15 min at 4 °C. The supernatant was transferred into vials for HPLC-MS/MS analysis and the concentration of 3-N-acetylamifampridine was determined.

[4] = In vivo pharmacokinetic interaction study in rats (plasma); parameters: species or system rat; conditions: male, Sprague-Dawley, rat, plasma, ip, 100 mg/kg, acetaminophen 100 mg/kg intraperitoneally, rats
Procedure: Male Sprague Dawley (SD) rats (7–8 weeks old, 260–330 g) were purchased from Orient Bio, Inc. (Seongnam, Korea). The rats were housed under a light/dark cycle for 12 h and were left for at least a week before the experiment to adapt to the laboratory environment. Water and food were provided ad libitum. The rats were fasted overnight with free access to water prior to pharmacokinetic studies. The protocols for animal experiments were approved in accordance with the Guidelines for Animal Care and Use of Gachon University (approval no.: GIACUC-R2021006; 13 May 2021).
The rats were anesthetized with a mixture of Rompun and Zoletil by intramuscular injection and received an intraperitoneal injection of vehicle (40:60 PEG400:normal saline; n = 8) or 100 mg/kg acetaminophen (n = 8). After 10 min, 2 mg/kg amifampridine (dissolved in saline) was administered orally. Blood samples were collected at 0, 5, 15, 30, 60, 90, 120, 240, and 360 min and centrifuged at 14,000 rpm for 15 min at 4 °C. For analysis of amifampridine and 3-N-acetylamifampridine, 50 μL of plasma samples was mixed with 100 μL IS solution (5 ng/mL ondansetron in acetonitrile) and the mixture was vortexed followed by centrifugation at 14,000 rpm for 15 min at 4 °C. For the analysis of acetaminophen, 200 μL of IS (tolbutamide 200 ng/mL in methanol) was added to the plasma samples which were diluted 10-fold using the blank plasma and then vortexed for one minute. Further, the samples were centrifuged at 14,000 rpm for 15 min at 4 °C. The supernatants were transferred to LC vials for quantification.
Non-compartment analysis (NCA) was performed to calculate the pharmacokinetic parameters for the in vivo study using WinNonlin (Version 8.3. (Pharsight Corporation, Mountain View, CA, USA)). The area under the plasma concentration–time curve from time 0 to infinity (AUCinf) was calculated by the linear trapezoidal method and standard extrapolation using λ, where λ represents the slope of the terminal phase in a semi-log graph for plasma concentration–time profiles. Renal clearance (CLr) was determined by dividing the accumulated amount of drug excreted in the urine by AUCinf.

NAT2 [5] = target: T2, NAT2; assay: Time-dependent inhibition of amifampridine metabolism by acetaminophen, rat liver S9 fraction; type: biochemical
Procedure: To examine whether acetaminophen could inhibit the metabolic activity of amifampridine in a time-dependent manner, the experiment was conducted by using a high concentration of amifampridine (approximately four-fold Km value) for different pre-incubation times (0, 10, 30, and 60 min) in the presence of different concentrations of acetaminophen (0, 10, 50, 100, and 500 μM). The reaction mixture contained the liver S9 fraction (2 mg/mL protein) and 2 mM acetyl-CoA in potassium phosphate buffer. Then, acetaminophen was added and pre-incubated at different times in a thermomixer at 37 °C. The reaction was then initiated by adding amifampridine (240 μM as a final concentration) and vortex mixing followed by incubation at 37 °C for 15 min. After incubation, the 50 μL aliquot was transferred into a tube containing 200 μL of ice-cold potassium phosphate to dilute it five-fold. […]
Kobs, the observed rate of enzyme loss, was estimated from the negative slopes of the lines using a linear regression analysis of the natural logarithm of metabolite formation as a function of incubation time. The first-order rate constant, Kinact, which represents the maximum rate of enzyme inactivation, was calculated using a nonlinear regression analysis as follows: Kobs=Kinact×I/Ki+I

NAT2 [6] = target: T2, NAT2; assay: Reversible inhibition mode of acetaminophen on amifampridine metabolism, rat liver S9 fraction (Lineweaver–Burk, secondary plots); type: biochemical
Procedure: To determine the inhibition mechanism of amifampridine metabolism by acetaminophen, various concentrations of amifampridine (40, 80, 160, and 320 μM) were incubated with the rat liver S9 fraction in the presence of different concentrations of acetaminophen (0, 10, 50, 100, and 500 μM). After pre-incubating the reaction mixture containing 2 mM acetyl-CoA for 5 min in a thermomixer at 37 °C, acetaminophen and amifampridine were added and further incubated for 15 min at 37 °C. The samples were diluted five-fold using potassium phosphate buffer, then 50 μL of the diluted samples was transferred into the tube containing 100 μL of IS (5 ng/mL ondansetron in acetonitrile). The mixture was vortexed and centrifuged at 14,000 rpm for 15 min at 4 °C. The supernatant was transferred into vials for HPLC-MS/MS analysis and the concentration of 3-N-acetylamifampridine was determined.
The α value is the degree to which the binding of acetaminophen changes the affinity of the enzyme for amifampridine.

NAT2 [7] = target: T1, NAT2; parameters: method as in PMID 26519524, PMID 9918139; conditions: sulfamethazine acetylation, cited from earlier work

Q: Which results are given for `CC(=O)Nc1ccc(O)cc1` [acetaminophen]?
A: IC50 (NAT2 [1]): 4480 ± 742 µM; Cmax [2]: ≤ 200 µM; stronger inhibitory effect in rats compared to humans (IC50 ratio) (NAT2 [3]): approximately 29 fold; Cmax [4]: 54800 ng/mL and 362 µM; decrease of metabolic activity of amifampridine (NAT2 [5]; acetaminophen pre-incubated with rat liver S9): approximately 0.31 % per min; kinact (NAT2 [5]; pre-incubation 0-60 min, amifampridine 240 μM, rat liver S9): 5.17e-05 s⁻¹; inhibition mode (NAT2 [6]; Lineweaver–Burk plot, rat liver S9): mixed inhibition; α value (NAT2 [6]; rat liver S9, mixed inhibition model): 3.48; αKi (NAT2 [6]; secondary plot (y-intercept), rat liver S9): 238.8 ± 25.6 µM; Ki (NAT2 [7]; human liver cytosol from fast acetylators): 2140 µM; Ki (NAT2 [7]; human liver cytosol from slow acetylators): 712 µM
